Results on 32 molecules are retold here after patent publication US10851083B2, “Benzoimidazoles as prolyl hydroxylase inhibitors” (Janssen Pharmaceutica NV, priority 2008, dated 2020).

SMILES strings stand for the structures.

The subject of test [1] is Hep-3B cells. Briefly: Cellular assay: EPO secretion in Hep-3B cells. The arrangement: EPO secretion, % of control compound: dose or concentration left out as unconfirmed. Format: cell-based, human. Particulars: Homo sapiens, Hep3B, 24 h, EPO secretion as percentage of control compound 7-[(4-Chloro-phenyl)-(5-methyl-isoxazol-3-ylamino)-methyl]-quinolin-8-ol, read-out: Cellular % EPO Stimulation.

The target in test [2] is human PHD2181-417 (Homo sapiens (Human), UniProt Q9GZT9). Briefly: PHD2 enzyme activity assay ([14C]-succinic acid production).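 Also: reaction ran 10 min with compound in Tris pH 7.5 buffer with catalase, DTT and ascorbate, labelled succinate freed of leftover 2-oxoglutarate by DNP precipitation, then beta counted.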 The format is biochemical. The settings on record: PHD2181-417 polypeptide, HIF-1α peptide 10 μM, [5-14C]-2-oxoglutaric acid; 30 min pre-incubation; tested 10 μM to 3 nM.
Sequence of human PHD2181-417 (Q9GZT9 181-417): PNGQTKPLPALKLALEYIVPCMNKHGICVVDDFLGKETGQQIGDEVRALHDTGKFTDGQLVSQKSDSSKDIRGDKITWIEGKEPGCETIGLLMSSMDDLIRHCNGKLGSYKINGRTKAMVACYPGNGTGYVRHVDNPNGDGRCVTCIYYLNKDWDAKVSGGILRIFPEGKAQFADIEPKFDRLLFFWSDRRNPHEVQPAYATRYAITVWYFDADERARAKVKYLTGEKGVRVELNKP

In the case of `Cc1cc(C)c(CS(=O)(=O)c2cc3nc(-n4cc(C(=O)O)cn4)[nH]c3cc2Cl)c(C)c1` [Example 90, 1-[6-Chloro-5-(2,4,6-trimethyl-phenylmethanesulfonyl)-1H-benzoimidazol-2-yl]-1H-pyrazole-4-carboxylic Acid], the EPO secretion, % of control compound in test [1] was 8.25%. Moreover, the “Enzyme pIC50” value in test [2] turned out to be 7.3.

As to `COc1ccc(CS(=O)(=O)c2cc3nc(-n4cc(C(=O)O)cn4)[nH]c3cc2Cl)cc1` [Example 91, 1-[6-Chloro-5-(4-methoxy-phenylmethanesulfonyl)-1H-benzoimidazol-2-yl]-1H-pyrazole-4-carboxylic Acid], the EPO secretion, % of control compound in test [1] is 22%. Besides, the “Enzyme pIC50” value in test [2] is 7.7.

Regarding `O=C(O)c1cnn(-c2nc3cc(S(=O)(=O)Cc4ccc(F)cc4)c(Cl)cc3[nH]2)c1` [Example 92, 1-[6-Chloro-5-(4-fluoro-phenylmethanesulfonyl)-1H-benzoimidazol-2-yl]-1H-pyrazole-4-carboxylic Acid], in test [1], the EPO secretion, % of control compound was 61.2%. Further, the “Enzyme pIC50” value in test [2] is listed as 7.5.

Consider `O=C(O)c1cnn(-c2nc3cc(S(=O)(=O)Cc4ccccc4Cl)c(Cl)cc3[nH]2)c1` [Example 93, 1-[6-Chloro-5-(2-chloro-phenylmethanesulfonyl)-1H-benzoimidazol-2-yl]-1H-pyrazole-4-carboxylic Acid], for which the EPO secretion, % of control compound in test [1] came out at 78.5%. Besides, the “Enzyme pIC50” value in test [2] was 7.5.

With `O=C(O)c1cnn(-c2nc3cc(S(=O)(=O)CCc4ccccc4)c(Cl)cc3[nH]2)c1` [Example 94, 1-[6-Chloro-5-(2-phenyl-ethanesulfonyl)-1H-benzoimidazol-2-yl]-1H-pyrazole-4-carboxylic Acid], the EPO secretion, % of control compound in test [1] is 65.1%. Moreover, the “Enzyme pIC50” value in test [2] was found to be 7.4.

Take `CC[S+]([O-])c1cc2[nH]c(-n3cc(C(=O)O)cn3)nc2cc1Cl` (stereo not shown) [Example 95, 1-(5-Chloro-6-ethanesulfinyl-1H-benzoimidazol-2-yl)-1H-pyrazole-4-carboxylic Acid]: the EPO secretion, % of control compound in test [1] turned out to be 46.3%. In addition, the “Enzyme pIC50” value in test [2] was found to be 7.2.

Take `CCS(=O)(=O)c1cc2[nH]c(-n3cc(C(=O)O)cn3)nc2cc1Cl` [Example 96, 1-(5-Chloro-6-ethanesulfonyl-1H-benzoimidazol-2-yl)-1H-pyrazole-4-carboxylic Acid]: the EPO secretion, % of control compound in test [1] was determined as 67%. The “Enzyme pIC50” value in test [2] was found to be 7.4.

As for `CS(=O)(=O)c1cc2[nH]c(-n3cc(C(=O)O)cn3)nc2cc1C(F)(F)F` [Example 97, 1-(6-Methanesulfonyl-5-trifluoromethyl-1H-benzoimidazol-2-yl)-1H-pyrazole-4-carboxylic Acid], the EPO secretion, % of control compound in test [1] came to 75.9%. Also, the “Enzyme pIC50” value in test [2] is 7.6.

As to `CS(=O)(=O)c1cc2[nH]c(-n3cc(C(=O)O)cn3)nc2cc1F` [Example 98, 1-(5-Fluoro-6-methanesulfonyl-1H-benzoimidazol-2-yl)-1H-pyrazole-4-carboxylic Acid], the EPO secretion, % of control compound in test [1] was 41.4%. For the same molecule, the “Enzyme pIC50” value in test [2] was 7.3.

With `CS(=O)(=O)c1cc2[nH]c(-n3cc(C(=O)O)cn3)nc2cc1Cl` [Example 99, 1-(5-Chloro-6-methanesulfonyl-1H-benzoimidazol-2-yl)-1H-pyrazole-4-carboxylic Acid], the EPO secretion, % of control compound in test [1] was determined as 34.9%. In addition, in test [2], the “Enzyme pIC50” value is 7.4.

Turning to `CS(=O)(=O)c1cc2[nH]c(-n3cc(C(=O)O)cn3)nc2cc1OC(F)(F)F` [Example 100, 1-(6-Methanesulfonyl-5-trifluoromethoxy-1H-benzoimidazol-2-yl)-1H-pyrazole-4-carboxylic Acid], the EPO secretion, % of control compound in test [1] amounted to 50.2%. Further, in test [2], the “Enzyme pIC50” value stood at 7.5.

`CC(C)S(=O)(=O)c1cc2[nH]c(-n3cc(C(=O)O)cn3)nc2cc1Cl` [Example 101, 1-[5-Chloro-6-(propane-2-sulfonyl)-1H-benzoimidazol-2-yl]-1H-pyrazole-4-carboxylic Acid]: the EPO secretion, % of control compound in test [1] is 62.2%. Also, in test [2], the “Enzyme pIC50” value came out at 7.3.

On to `CCCS(=O)(=O)c1cc2[nH]c(-n3cc(C(=O)O)cn3)nc2cc1Cl` [Example 102, 1-[5-Chloro-6-(propane-1-sulfonyl)-1H-benzoimidazol-2-yl]-1H-pyrazole-4-carboxylic Acid], for which the EPO secretion, % of control compound in test [1] worked out at 54.9%. In addition, the “Enzyme pIC50” value in test [2] turned out to be 7.5.

As to `CCCS(=O)(=O)c1cc2[nH]c(-n3cc(C(=O)O)cn3)nc2cc1OC(F)(F)F` [Example 106, 1-[6-(Propane-1-sulfonyl)-5-trifluoromethoxy-1H-benzoimidazol-2-yl]-1H-pyrazole-4-carboxylic Acid], the EPO secretion, % of control compound in test [1] was determined as 124%. The “Enzyme pIC50” value in test [2] worked out at 7.5.

Regarding `O=C(O)c1cnn(-c2nc3cc([S+]([O-])c4ccc(Cl)cc4)c(Cl)cc3[nH]2)c1` (stereo not shown) [Example 107], the EPO secretion, % of control compound in test [1] amounted to 47.6%. Besides, in test [2], the “Enzyme pIC50” value was 7.2.

`C[S+]([O-])c1cc2[nH]c(-n3cc(C(=O)O)cn3)nc2cc1C(F)(F)F` (stereo not shown) [Example 108, 1-(6-Methanesulfinyl-5-trifluoromethyl-1H-benzoimidazol-2-yl)-1H-pyrazole-4-carboxylic Acid]: the EPO secretion, % of control compound in test [1] is 20.4%. Further, the “Enzyme pIC50” value in test [2] was determined as 7.3.

With `O=C(O)c1cnn(-c2nc3cc(F)c(Br)cc3[nH]2)c1` [Example 109, 1-(6-Bromo-5-fluoro-1H-benzoimidazol-2-yl)-1H-pyrazole-4-carboxylic Acid], the EPO secretion, % of control compound in test [1] came to 99%. Also, the “Enzyme pIC50” value in test [2] is given as 6.7.

`O=C(O)c1cnn(-c2nc3c(F)cccc3[nH]2)c1` [Example 110, 1-(4-Fluoro-1H-benzoimidazol-2-yl)-1H-pyrazole-4-carboxylic Acid]: in test [1], the EPO secretion, % of control compound was 45.9%. Besides, the “Enzyme pIC50” value in test [2] is listed as 6.2.

Regarding `O=C(O)c1cnn(-c2nc3c(F)c(F)ccc3[nH]2)c1` [Example 111, 1-(4,5-Difluoro-1H-benzoimidazol-2-yl)-1H-pyrazole-4-carboxylic Acid], the EPO secretion, % of control compound in test [1] worked out at 32.6%. The “Enzyme pIC50” value in test [2] is 6.6.

For `O=C(O)c1cnn(-c2nc3c(F)cc(F)cc3[nH]2)c1` [Example 112, 1-(4,6-Difluoro-1H-benzoimidazol-2-yl)-1H-pyrazole-4-carboxylic Acid], the EPO secretion, % of control compound in test [1] stood at 32%. Besides, the “Enzyme pIC50” value in test [2] worked out at 6.8.

As for `O=C(O)c1cnn(-c2nc3cc(OC(F)(F)F)c(Cl)cc3[nH]2)c1` [Example 113, 1-(6-Chloro-5-trifluoromethoxy-1H-benzoimidazol-2-yl)-1H-pyrazole-4-carboxylic Acid], in test [1], the EPO secretion, % of control compound is 109%. For the same molecule, the “Enzyme pIC50” value in test [2] is listed as 6.98.

With `O=C(O)c1cnn(-c2nc3cc4ccccc4cc3[nH]2)c1` [Example 114, 1-(1H-Naphtho[2,3-d]imidazol-2-yl)-1H-pyrazole-4-carboxylic Acid], the EPO secretion, % of control compound in test [1] came to 144%. Moreover, the “Enzyme pIC50” value in test [2] is 6.3.

As to `O=C(O)c1cnn(-c2nc3c(ccc4ccccc43)[nH]2)c1` [Example 115, 1-(3H-Naphtho[1,2-d]imidazol-2-yl)-1H-pyrazole-4-carboxylic Acid], in test [1], the EPO secretion, % of control compound is 50%. Further, the “Enzyme pIC50” value in test [2] amounted to 6.1.

`Cc1c(F)ccc2[nH]c(-n3cc(C(=O)O)cn3)nc12` [Example 116, 1-(5-Fluoro-4-methyl-1H-benzoimidazol-2-yl)-1H-pyrazole-4-carboxylic Acid]: the EPO secretion, % of control compound in test [1] is 18.3%. For the same molecule, the “Enzyme pIC50” value in test [2] amounted to 5.8.

For `O=C(O)c1cnn(-c2nc3cc(N4CCCCC4)c(OC(F)(F)F)cc3[nH]2)c1` [Example 117, 1-(5-Piperidin-1-yl-6-trifluoromethoxy-1H-benzoimidazol-2-yl)-1H-pyrazole-4-carboxylic Acid], the EPO secretion, % of control compound in test [1] amounted to 80%. Also, in test [2], the “Enzyme pIC50” value came out at 6.5.

`O=C(O)c1cnn(-c2nc3cc(F)c(N4CCCCC4)cc3[nH]2)c1` [Example 118, 1-(5-Fluoro-6-piperidin-1-yl-1H-benzoimidazol-2-yl)-1H-pyrazole-4-carboxylic Acid]: the EPO secretion, % of control compound in test [1] stood at 152%. Moreover, the “Enzyme pIC50” value in test [2] is 6.8.

As to `CCOc1cc2[nH]c(-n3cc(C(=O)O)cn3)nc2cc1F` [Example 119, 1-(6-Ethoxy-5-fluoro-1H-benzoimidazol-2-yl)-1H-pyrazole-4-carboxylic Acid], the EPO secretion, % of control compound in test [1] was determined as 69%. In addition, the “Enzyme pIC50” value in test [2] turned out to be 6.5.

On to `O=C(O)c1cnn(-c2nc3cc(C(=O)Nc4ccccc4)ccc3[nH]2)c1` [Example 120, 1-(5-Phenylcarbamoyl-1H-benzoimidazol-2-yl)-1H-pyrazole-4-carboxylic Acid], for which, in test [1], the EPO secretion, % of control compound was determined as 21.1%. Besides, the “Enzyme pIC50” value in test [2] was determined as 6.9.

Consider `O=C(O)c1cnn(-c2nc3cc(C(=O)NCc4ccccc4)ccc3[nH]2)c1` [Example 121, 1-(5-Benzylcarbamoyl-1H-benzoimidazol-2-yl)-1H-pyrazole-4-carboxylic Acid], for which the EPO secretion, % of control compound in test [1] was determined as 18.5%. In addition, the “Enzyme pIC50” value in test [2] is 7.1.

In the case of `O=C(O)c1cnn(-c2nc3cc(C(=O)NN4CCOCC4)ccc3[nH]2)c1` [Example 122, 1-[5-(Morpholin-4-ylcarbamoyl)-1H-benzoimidazol-2-yl]-1H-pyrazole-4-carboxylic Acid], in test [1], the EPO secretion, % of control compound was determined as 5.4%. In addition, the “Enzyme pIC50” value in test [2] came to 6.6.

For the molecule `O=C(O)c1cnn(-c2nc3cc(COCc4ccccc4)ccc3[nH]2)c1` [Example 123, 1-(5-Benzyloxymethyl-1H-benzoimidazol-2-yl)-1H-pyrazole-4-carboxylic Acid], the EPO secretion, % of control compound in test [1] is 61.1%. Moreover, the “Enzyme pIC50” value in test [2] is given as 6.3.

With `O=C(O)c1cnn(-c2nc3c(Br)cc(F)cc3[nH]2)c1` [Example 124, 1-(4-Bromo-6-fluoro-1H-benzoimidazol-2-yl)-1H-pyrazole-4-carboxylic Acid], in test [1], the EPO secretion, % of control compound was determined as 2.4%. Besides, the “Enzyme pIC50” value in test [2] is on record as 6.3.
